According to patent publication US9688642B2, “Substituted pyrazines as GPR40 agonists” (Janssen Pharmaceutica NV, priority 2014, dated 2017):
Values joined by “and” are separate entries in the source; they are usually repeats but may differ in a detail not shown here. Identical values can stand only once.

Assays:
human GPR40 = human GPR40 (Homo sapiens (Human), UniProt O14842); assay: GPR40 calcium flux assay, HEK293 cells stably expressing human GPR40; format: cell-based; conditions: transfected HEK293 cells stably expressing human GPR40; individual determinations listed; read-out: hGPR40 Ca2+ Assay EC50
Sequence of human GPR40 (O14842 whole entry): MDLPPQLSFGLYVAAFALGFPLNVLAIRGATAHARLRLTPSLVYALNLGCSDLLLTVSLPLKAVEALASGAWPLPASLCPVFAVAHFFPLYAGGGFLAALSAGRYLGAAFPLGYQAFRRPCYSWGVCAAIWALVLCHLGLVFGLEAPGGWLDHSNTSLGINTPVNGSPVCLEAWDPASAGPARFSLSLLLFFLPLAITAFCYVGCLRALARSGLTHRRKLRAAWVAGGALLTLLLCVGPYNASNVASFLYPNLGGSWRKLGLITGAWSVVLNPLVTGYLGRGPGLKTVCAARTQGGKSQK
Protocol: (§1) Compounds were tested in a calcium flux assay using transfected HEK293 cells stably expressing either human GPR40 or rat GPR40. Human GPR40 expressing cells were cultured in DMEM-High Glucose media supplemented with 10% fetal bovine serum, 1×L-Glutamine, 1× Penicillin/Streptomycin and 500 μg/mL G418. Rat GPR40 expressing cells were cultured in DMEM-High Glucose media supplemented with 10% fetal bovine serum and 1 μg/mL puromycin. Cells were plated into poly-D-lysine coated 384-well plates and cultured overnight in a 37° C. humidified tissue culture incubator under 5% CO2/90% O2 atmosphere. On the day of the experiment, the culture media was replaced with assay buffer (HBSS, 20 mM HEPES, 0.1% BSA) and the cells incubated at 37° C. for 1 h. Calcium-sensitive fluorescent dye (Fluo 8 No-Wash Calcium Dye, ABD Bioquest) was then added and the cells incubated for another 30 min at 37° C. followed by 15 min at room temperature while protected from the light. The cell plate and a plate of diluted compounds of Formula (I) were loaded into a fluorescent plate reader that added compounds onto the cells while measuring the fluorescence intensity of each well. The plate reader recorded fluorescence intensity at 1 second intervals for 8 min and provided the data for analysis in an Excel format. EC50 values were calculated using Prism (GraphPad) software.

rat GPR40 = rat GPR40 (Rattus norvegicus (Rat), UniProt Q8K3T4); assay: GPR40 calcium flux assay, HEK293 cells stably expressing rat GPR40; format: cell-based; conditions: transfected HEK293 cells stably expressing rat GPR40; individual determinations listed; read-out: rGPR40 Ca2+ Assay EC50
Sequence of rat GPR40 (Q8K3T4 whole entry): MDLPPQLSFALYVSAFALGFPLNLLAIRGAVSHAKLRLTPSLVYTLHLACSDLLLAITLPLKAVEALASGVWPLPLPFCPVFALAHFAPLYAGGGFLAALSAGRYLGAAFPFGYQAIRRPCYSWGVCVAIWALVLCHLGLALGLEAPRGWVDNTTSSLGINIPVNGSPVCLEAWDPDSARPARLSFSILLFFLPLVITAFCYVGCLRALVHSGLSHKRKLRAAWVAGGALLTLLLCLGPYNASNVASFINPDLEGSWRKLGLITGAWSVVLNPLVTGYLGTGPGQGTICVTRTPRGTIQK
Protocol: as §1

SMILES	EC50 (human GPR40)	EC50 (rat GPR40)
COc1ccc(F)c(-c2ncc(COc3cccc([C@@H](CC(=O)O)C4CC4)c3)nc2CC(C)(C)C)c1 [Cpd 1, (3S)-3-cyclopropyl-3-[3-[[6-(2,2-dimethylpropyl)-5-(2-fluoro-5-methoxy-phenyl)pyrazin-2-yl]methoxy]phenyl]propanoic acid]	2 nM	39 nM and 25 nM
CCCCc1nc(COc2cccc([C@@H](CC(=O)O)C3CC3)c2)cnc1-c1cc(OC)ccc1F [Cpd 3, (3S)-3-[3-[[6-butyl-5-(2-fluoro-5-methoxy-phenyl)pyrazin-2-yl]methoxy]phenyl]-3-cyclopropyl-propanoic acid]	3 nM and 2 nM	33 nM and 26 nM
COc1ccc(F)c(-c2ncc(COc3cccc([C@@H](CC(=O)O)C4CC4)c3)nc2OCC(C)(C)C)c1 [Cpd 4, (3S)-3-cyclopropyl-3-[3-[[6-(2,2-dimethylpropoxy)-5-(2-fluoro-5-methoxy-phenyl)pyrazin-2-yl]methoxy]phenyl]propanoic acid]	9 nM and 3 nM and 2 nM	13 nM (2×) and 9 nM
COc1ccc(F)c(-c2ncc(COc3cccc([C@@H](CC(=O)O)C4CC4)c3)nc2CC(C)C)c1 [Cpd 5, (3S)-3-cyclopropyl-3-[3-[[5-(2-fluoro-5-methoxy-phenyl)-6-isobutyl-pyrazin-2-yl]methoxy]phenyl]propanoic acid]	3 nM and 2 nM	12 nM and 10 nM
COc1ccc(F)c(-c2ncc(COc3cccc([C@@H](CC(=O)O)C4CC4)c3)nc2N2CC3(CCC3)C2)c1 [Cpd 6, (3S)-3-[3-[(6-[2-azaspiro[3.3]heptan-2-yl]-5-(2-fluoro-5-methoxyphenyl)pyrazin-2-yl)methoxy]phenyl]-3-cyclopropylpropanoic acid]	5 nM and 4 nM	17 nM and 14 nM
COc1ccc(F)c(-c2ncc(COc3cccc([C@@H](CC(=O)O)C4CC4)c3)nc2OC2CCCCC2)c1 [Cpd 7, (3S)-3-[3-[[6-(cyclohexoxy)-5-(2-fluoro-5-methoxy-phenyl)pyrazin-2-yl]methoxy]phenyl]-3-cyclopropyl-propanoic acid]	7 nM and 6 nM	29 nM and 27 nM
COc1cc(-c2ncc(COc3cccc([C@@H](CC(=O)O)C4CC4)c3)nc2OC2CCCCC2)c(F)cn1 [Cpd 9, (3S)-3-[3-[[6-(cyclohexoxy)-5-(5-fluoro-2-methoxy-4-pyridyl)pyrazin-2-yl]methoxy]phenyl]-3-cyclopropyl-propanoic acid]	7 nM	20 nM and 16 nM
COc1ccc(F)c(-c2ncc(COc3cccc([C@@H](CC(=O)O)C4CC4)c3)nc2-c2cc(C)cc(C)c2)c1 [Cpd 10, (3S)-3-cyclopropyl-3-[3-[[6-(3,5-dimethylphenyl)-5-(2-fluoro-5-methoxy-phenyl)pyrazin-2-yl]methoxy]phenyl]propanoic acid]	8 nM and 7 nM	33 nM and 29 nM
COc1cc(-c2ncc(COc3cccc([C@@H](CC(=O)O)C4CC4)c3)nc2C=C(C)C)c(F)cn1 [Cpd 11, (3S)-3-cyclopropyl-3-[3-[[5-(5-fluoro-2-methoxy-4-pyridyl)-6-(2-methylprop-1-enyl)pyrazin-2-yl]methoxy]phenyl]propanoic acid]	11 nM and 7 nM	29 nM and 23 nM
COc1cc(-c2ncc(COc3cccc([C@@H](CC(=O)O)C4CC4)c3)nc2OCC(C)C)c(F)cn1 [Cpd 12, (3S)-3-cyclopropyl-3-[3-[[5-(5-fluoro-2-methoxy-4-pyridyl)-6-isobutoxy-pyrazin-2-yl]methoxy]phenyl]propanoic acid]	11 nM and 8 nM	24 nM and 21 nM
COc1ccc(F)c(-c2ncc(COc3cccc([C@@H](CC(=O)O)C4CC4)c3)nc2OCC(C)C)c1 [Cpd 14, (3S)-3-cyclopropyl-3-[3-[[5-(2-fluoro-5-methoxy-phenyl)-6-isobutoxy-pyrazin-2-yl]methoxy]phenyl]propanoic acid]	10 nM (2×) and 9 nM	16 nM and 32 nM and 31 nM and 21 nM and 18 nM
COc1cc(-c2ncc(COc3cccc([C@@H](CC(=O)O)C4CC4)c3)nc2C2=CCCC2(C)C)c(F)cn1 [Cpd 15, (3S)-3-cyclopropyl-3-[3-[[6-(5,5-dimethylcyclopenten-1-yl)-5-(5-fluoro-2-methoxy-4-pyridyl)pyrazin-2-yl]methoxy]phenyl]propanoic acid]	15 nM and 7 nM	21 nM and 15 nM
COc1cc(-c2ncc(COc3cccc([C@@H](CC(=O)O)C4CC4)c3)nc2OC2CCCC2)c(F)cn1 [Cpd 16, (3S)-3-[3-[[6-(cyclopentoxy)-5-(5-fluoro-2-methoxy-4-pyridyl)pyrazin-2-yl]methoxy]phenyl]-3-cyclopropyl-propanoic acid]	11 nM and 10 nM	38 nM and 36 nM
COc1ccc(F)c(-c2ncc(COc3cccc([C@@H](CC(=O)O)C4CC4)c3)nc2-c2ccccc2)c1 [Cpd 18, (3S)-3-cyclopropyl-3-[3-[[5-(2-fluoro-5-methoxy-phenyl)-6-phenyl-pyrazin-2-yl]methoxy]phenyl]propanoic acid]	13 nM and 10 nM	105 nM and 67 nM
COc1ccc(F)c(-c2ncc(COc3cccc([C@@H](CC(=O)O)C4CC4)c3)nc2OC2CCC2)c1 [Cpd 19, (3S)-3-[3-[[6-(cyclobutoxy)-5-(2-fluoro-5-methoxy-phenyl)pyrazin-2-yl]methoxy]phenyl]-3-cyclopropyl-propanoic acid]	14 nM and 11 nM	70 nM and 49 nM
COc1ccc(F)c(-c2ncc(COc3cccc([C@@H](CC(=O)O)C4CC4)c3)nc2-c2cccc(C)c2)c1 [Cpd 20, (3S)-3-cyclopropyl-3-[3-[[5-(2-fluoro-5-methoxy-phenyl)-6-(m-tolyl)pyrazin-2-yl]methoxy]phenyl]propanoic acid]	15 nM and 11 nM	90 nM and 78 nM
COc1ccc(F)c(-c2ncc(COc3cccc([C@@H](CC(=O)O)C4CC4)c3)nc2OCC2CC2)c1 [Cpd 21, (3S)-3-cyclopropyl-3-[3-[[6-(cyclopropylmethoxy)-5-(2-fluoro-5-methoxy-phenyl)pyrazin-2-yl]methoxy]phenyl]propanoic acid]	17 nM and 12 nM	65 nM and 57 nM
COc1ccc(F)c(-c2ncc(COc3cccc([C@@H](CC(=O)O)C4CC4)c3)nc2N2CCCCC2)c1 [Cpd 22, (3S)-3-cyclopropyl-3-[3-[[5-(2-fluoro-5-methoxy-phenyl)-6-(1-piperidyl)pyrazin-2-yl]methoxy]phenyl]propanoic acid]	18 nM and 12 nM	53 nM and 46 nM and 43 nM and 31 nM
COc1ccc(F)c(-c2ncc(COc3cccc([C@@H](CC(=O)O)C4CC4)c3)nc2-c2cccc(C(C)C)c2)c1 [Cpd 23, (3S)-3-cyclopropyl-3-[3-[[5-(2-fluoro-5-methoxy-phenyl)-6-(3-isopropylphenyl)pyrazin-2-yl]methoxy]phenyl]propanoic acid]	23 nM and 14 nM	58 nM and 50 nM
COc1ccc(F)c(-c2ncc(COc3cccc([C@@H](CC(=O)O)C4CC4)c3)nc2OC2CC(C)(C)CC(C)(C)C2)c1 [Cpd 24, (3S)-3-cyclopropyl-3-[3-[[5-(2-fluoro-5-methoxy-phenyl)-6-(3,3,5,5-tetramethylcyclohexoxy)pyrazin-2-yl]methoxy]phenyl]propanoic acid]	24 nM and 16 nM and 40 nM	187 nM and 178 nM and 183 nM
COc1ccc(F)c(-c2ncc(COc3cccc([C@@H](CC(=O)O)C4CC4)c3)nc2-c2ccc(C(C)C)cc2)c1 [Cpd 25, (3S)-3-cyclopropyl-3-[3-[[5-(2-fluoro-5-methoxy-phenyl)-6-(4-isopropylphenyl)pyrazin-2-yl]methoxy]phenyl]propanoic acid]	23 nM and 18 nM	45 nM and 40 nM
COc1ccc(F)c(-c2ncc(COc3cccc([C@@H](CC(=O)O)C4CC4)c3)nc2OC2CC(C)(C)OC(C)(C)C2)c1 [Cpd 26, (3S)-3-cyclopropyl-3-[3-[[5-(2-fluoro-5-methoxy-phenyl)-6-(2,2,6,6-tetramethyltetrahydropyran-4-yl)oxy-pyrazin-2-yl]methoxy]phenyl]propanoic acid]	21 nM	111 nM and 108 nM
COc1ccc(F)c(-c2ncc(COc3cccc([C@@H](CC(=O)O)C4CC4)c3)nc2OC2CCCCCC2)c1 [Cpd 27, (3S)-3-[3-[[6-(cycloheptoxy)-5-(2-fluoro-5-methoxy-phenyl)pyrazin-2-yl]methoxy]phenyl]-3-cyclopropyl-propanoic acid]	28 nM and 21 nM	48 nM and 34 nM
COc1cc(-c2ncc(COc3cccc([C@@H](CC(=O)O)C4CC4)c3)nc2-c2ccc(C)s2)c(F)cn1 [Cpd 28, (3S)-3-cyclopropyl-3-[3-[[5-(5-fluoro-2-methoxy-4-pyridyl)-6-(5-methyl-2-thienyl)pyrazin-2-yl]methoxy]phenyl]propanoic acid]	26 nM and 23 nM	57 nM and 54 nM
COc1ccc(F)c(-c2ncc(COc3cccc([C@@H](CC(=O)O)C4CC4)c3)nc2OC(C)C)c1 [Cpd 29, (3S)-3-cyclopropyl-3-[3-[[5-(2-fluoro-5-methoxy-phenyl)-6-isopropoxy-pyrazin-2-yl]methoxy]phenyl]propanoic acid]	39 nM and 30 nM and 21 nM and 26 nM and 23 nM	73 nM (2×) and 56 nM and 98 nM and 62 nM
COc1cc(-c2ncc(COc3cccc([C@@H](CC(=O)O)C4CC4)c3)nc2C2=CCCC2(C)C)ccn1 [Cpd 31, (3S)-3-cyclopropyl-3-[3-[[6-(5,5-dimethylcyclopenten-1-yl)-5-(2-methoxy-4-pyridyl)pyrazin-2-yl]methoxy]phenyl]propanoic acid]	32 nM and 26 nM	102 nM and 66 nM
